In PubChem BioAssay AID2060885 (Molecular Pharmacology Branch, DTP, NCI, 2025):

Tested on: NCI-H23 complex spheroids with HUVEC/MSC, viability
Assay: Anticancer human tumor NCI-H23 cell line growth inhibition [RAS];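 note: spheroids exposed to compound for 7 days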;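 for viability, T/C: 100% = DMSO vehicle control viability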
Conditions: for IC50: curve of first compound; for viability, T/C: stronger effect = lower value
Summary of the method: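 Multi-cell-type spheroids: tumor cells plus HUVEC endothelial cells and mesenchymal stem cells. RAS-pathway inhibitors were combined with targeted agents, each dosed in half-log steps down from clinical Cmax, or from 10 microM when Cmax was unknown.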

[1] = second compound 0.000949 µM, first compound 0.0316 µM
[2] = second compound 0.000949 µM, first compound 0.1 µM
[3] = second compound 0.000949 µM, first compound 0.316 µM
[4] = second compound 0.000949 µM, first compound 1 µM
[5] = second compound 0.000949 µM, first compound 3.16 µM
[6] = second compound 0.000949 µM, first compound 10 µM
[7] = second compound 0.003 µM, first compound 0.0316 µM
[8] = second compound 0.003 µM, first compound 0.1 µM
[9] = second compound 0.003 µM, first compound 0.316 µM
[10] = second compound 0.003 µM, first compound 1 µM
[11] = second compound 0.003 µM, first compound 3.16 µM
[12] = second compound 0.003 µM, first compound 10 µM
[13] = second compound 0.00949 µM, first compound 0.0316 µM
[14] = second compound 0.00949 µM, first compound 0.1 µM
[15] = second compound 0.00949 µM, first compound 0.316 µM
[16] = second compound 0.00949 µM, first compound 1 µM
[17] = second compound 0.00949 µM, first compound 3.16 µM
[18] = second compound 0.00949 µM, first compound 10 µM
[19] = second compound 0.03 µM, first compound 0.0316 µM
[20] = second compound 0.03 µM, first compound 0.1 µM
[21] = second compound 0.03 µM, first compound 0.316 µM
[22] = second compound 0.03 µM, first compound 1 µM
[23] = second compound 0.03 µM, first compound 3.16 µM
[24] = second compound 0.03 µM, first compound 10 µM
[25] = second compound 0.0949 µM, first compound 0.0316 µM
[26] = second compound 0.0949 µM, first compound 0.1 µM
[27] = second compound 0.0949 µM, first compound 0.316 µM
[28] = second compound 0.0949 µM, first compound 1 µM
[29] = second compound 0.0949 µM, first compound 3.16 µM
[30] = second compound 0.0949 µM, first compound 10 µM
[31] = second compound 0.3 µM, first compound 0.0316 µM
[32] = second compound 0.3 µM, first compound 0.1 µM
[33] = second compound 0.3 µM, first compound 0.316 µM
[34] = second compound 0.3 µM, first compound 1 µM
[35] = second compound 0.3 µM, first compound 3.16 µM
[36] = second compound 0.3 µM, first compound 10 µM

CC(C)NCC(C(=O)N1CCN(c2ncnc3c2C(C)CC3O)CC1)c1ccc(Cl)cc1 (stereo unspecified) + CCn1c(-c2cc(N3CCN(C)CC3)cnc2C(C)OC)c2c3cc(ccc31)-c1csc(n1)CC(NC(=O)C1CC1C)C(=O)N1CCCC(N1)C(=O)OCC(C)(C)C2
IC50 (second compound 0.000949 µM): < 31.6 nM | IC50 (second compound 0.003 µM): < 31.6 nM | IC50 (second compound 0.00949 µM): < 31.6 nM | IC50 (second compound 0.03 µM): < 31.6 nM | IC50 (second compound 0.0949 µM): < 31.6 nM | IC50 (second compound 0.3 µM): < 31.6 nM | viability, T/C [1]: 44% | viability, T/C [2]: 47.4% | viability, T/C [3]: 32.9% | viability, T/C [4]: 34.7% | viability, T/C [5]: 26.2% | viability, T/C [6]: 15.2% | viability, T/C [7]: 37.9% | viability, T/C [8]: 27.3% | viability, T/C [9]: 24.2% | viability, T/C [10]: 22.6% | viability, T/C [11]: 22% | viability, T/C [12]: 13.8% | viability, T/C [13]: 30.8% | viability, T/C [14]: 31.7% | viability, T/C [15]: 30.4% | viability, T/C [16]: 22.2% | viability, T/C [17]: 17.1% | viability, T/C [18]: 10.4% | viability, T/C [19]: 29.5% | viability, T/C [20]: 23.8% | viability, T/C [21]: 21.5% | viability, T/C [22]: 19.6% | viability, T/C [23]: 12.1% | viability, T/C [24]: 12.1% | viability, T/C [25]: 18.6% | viability, T/C [26]: 18.6% | viability, T/C [27]: 17.8% | viability, T/C [28]: 17.4% | viability, T/C [29]: 10.3% | viability, T/C [30]: 9.96% | viability, T/C [31]: 18.1% | viability, T/C [32]: 15.7% | viability, T/C [33]: 14.9% | viability, T/C [34]: 10.6% | viability, T/C [35]: 9.62% | viability, T/C [36]: 9.02%

CC(C)n1nc(-c2ccc3oc(N)nc3c2)c2c(N)ncnc21 + CCn1c(-c2cc(N3CCN(C)CC3)cnc2C(C)OC)c2c3cc(ccc31)-c1csc(n1)CC(NC(=O)C1CC1C)C(=O)N1CCCC(N1)C(=O)OCC(C)(C)C2
IC50 (second compound 0.000949 µM): < 0.316 nM | IC50 (second compound 0.003 µM): < 0.316 nM | IC50 (second compound 0.00949 µM): < 0.316 nM | IC50 (second compound 0.03 µM): < 0.316 nM | IC50 (second compound 0.0949 µM): < 0.316 nM | IC50 (second compound 0.3 µM): < 0.316 nM | viability, T/C (second compound 0.000949 µM, first compound 0.000316 µM): 44.2% | viability, T/C (second compound 0.000949 µM, first compound 0.001 µM): 41.7% | viability, T/C (second compound 0.000949 µM, first compound 0.00316 µM): 24.1% | viability, T/C (second compound 0.000949 µM, first compound 0.01 µM): 30% | viability, T/C [1]: 24.2% | viability, T/C [2]: 13.5% | viability, T/C (second compound 0.003 µM, first compound 0.000316 µM): 32.4% | viability, T/C (second compound 0.003 µM, first compound 0.001 µM): 24.6% | viability, T/C (second compound 0.003 µM, first compound 0.00316 µM): 25.8% | viability, T/C (second compound 0.003 µM, first compound 0.01 µM): 21.6% | viability, T/C [7]: 19% | viability, T/C [8]: 9.18% | viability, T/C (second compound 0.00949 µM, first compound 0.000316 µM): 31.2% | viability, T/C (second compound 0.00949 µM, first compound 0.001 µM): 26.8% | viability, T/C (second compound 0.00949 µM, first compound 0.00316 µM): 24.1% | viability, T/C (second compound 0.00949 µM, first compound 0.01 µM): 20% | viability, T/C [13]: 16.4% | viability, T/C [14]: 11.4% | viability, T/C (second compound 0.03 µM, first compound 0.000316 µM): 24.5% | viability, T/C (second compound 0.03 µM, first compound 0.001 µM): 25.2% | viability, T/C (second compound 0.03 µM, first compound 0.00316 µM): 22.7% | viability, T/C (second compound 0.03 µM, first compound 0.01 µM): 19% | viability, T/C [19]: 11.7% | viability, T/C [20]: 11.6% | viability, T/C (second compound 0.0949 µM, first compound 0.000316 µM): 19.2% | viability, T/C (second compound 0.0949 µM, first compound 0.001 µM): 19.4% | viability, T/C (second compound 0.0949 µM, first compound 0.00316 µM): 19.2% | viability, T/C (second compound 0.0949 µM, first compound 0.01 µM): 16.6% | viability, T/C [25]: 9.51% | viability, T/C [26]: 11.2% | viability, T/C (second compound 0.3 µM, first compound 0.000316 µM): 17.9% | viability, T/C (second compound 0.3 µM, first compound 0.001 µM): 17% | viability, T/C (second compound 0.3 µM, first compound 0.00316 µM): 16.4% | viability, T/C (second compound 0.3 µM, first compound 0.01 µM): 13.4% | viability, T/C [31]: 13.5% | viability, T/C [32]: 11.5%

C[C@@H](NC(=O)c1ncnc(N)c1Cl)c1ncc(C(=O)Nc2cc(C(F)(F)F)c(Cl)cn2)s1 + CCn1c(-c2cc(N3CCN(C)CC3)cnc2C(C)OC)c2c3cc(ccc31)-c1csc(n1)CC(NC(=O)C1CC1C)C(=O)N1CCCC(N1)C(=O)OCC(C)(C)C2
IC50 (second compound 0.000949 µM): 1530 nM | IC50 (second compound 0.003 µM): < 31.6 nM | IC50 (second compound 0.00949 µM): < 31.6 nM | IC50 (second compound 0.03 µM): < 31.6 nM | IC50 (second compound 0.0949 µM): < 31.6 nM | IC50 (second compound 0.3 µM): < 31.6 nM | viability, T/C [1]: 51.5% | viability, T/C [2]: 54.4% | viability, T/C [3]: 46.1% | viability, T/C [4]: 48.4% | viability, T/C [5]: 49.9% | viability, T/C [6]: 25% | viability, T/C [7]: 39.7% | viability, T/C [8]: 33% | viability, T/C [9]: 33.9% | viability, T/C [10]: 37.2% | viability, T/C [11]: 38.5% | viability, T/C [12]: 24.6% | viability, T/C [13]: 35.3% | viability, T/C [14]: 29.5% | viability, T/C [15]: 32.5% | viability, T/C [16]: 32.8% | viability, T/C [17]: 31.7% | viability, T/C [18]: 27% | viability, T/C [19]: 29.4% | viability, T/C [20]: 27.8% | viability, T/C [21]: 31.3% | viability, T/C [22]: 30.7% | viability, T/C [23]: 29.3% | viability, T/C [24]: 25.2% | viability, T/C [25]: 21.1% | viability, T/C [26]: 22.3% | viability, T/C [27]: 26.3% | viability, T/C [28]: 28.4% | viability, T/C [29]: 21.8% | viability, T/C [30]: 24.2% | viability, T/C [31]: 22.6% | viability, T/C [32]: 24.4% | viability, T/C [33]: 24.2% | viability, T/C [34]: 22.7% | viability, T/C [35]: 25.4% | viability, T/C [36]: 21.9%
